# “Also recorded” adds a separate entry of the source.
# Key:
# Format in all cases: cell-based, human
# [1] = system: COX-2, EP2 and EP4 expression in HeLa cells; test: Real-time RT-PCR of COX-2, EP2 and EP4 in HeLa cells treated with seminal plasma; settings: HeLa cells co-treated with seminal plasma and inhibitor
# Method: In sexually active women growth and invasiveness of neoplastic cervical cells may be also under the direct influence of PGE present in seminal plasma. […] The expression of COX-2, EP2 and EP4, was measured by real-time RT-PCR.
# [2] = system: EP2/EP4 receptors in cervical tissue; test: cAMP production in cervical tissues in response to exogenous PGE2 or forskolin; settings: 300 nM PGE2 or 50 μM forskolin, 5 minutes, after overnight indomethacin
# Method: Cervical tissues (n=6 squamous carcinoma, n=1 adenocarcinoma and n=5 normal cervix) were sectioned finely, divided equally into three aliquots and incubated overnight in Dulbecco's Modified Eagle Medium (DMEM) (Sigma), containing 10% foetal calf serum, 0.3 mg/ml L-glutamine, 100 IU penicillin and 100 μg streptomycin and 3 μg/ml indomethacin. […] Tissue sections were harvested-by centrifugation at 2000 g. The supernatant was discarded and the tissue homogenised in 0.1 M HCl. cAMP concentration and protein concentrations were determined as mentioned above
# [3] = system: EP1 receptor in COX-1 Tet-Off HeLa cells; test: Inositol phosphate accumulation (EP1 receptor activity); settings: induced expression of COX-1 and PGE2 stimulation; data not shown
# From the text: No significant difference in basal cAMP production was detected in uninduced and induced cells (FIG. 6). […] The activity of EP1 receptor was investigated by measuring inositol phosphate accumulation (41).
# [4] = system: COX-1, COX-2 and PGES expression in HeLa COX-1 Tet-Off cells; test: Western blot of COX-1, COX-2 and PGES expression after COX-1 induction; settings: for effect on COX-1-mediated up-regulation of COX-2 expression / effect on COX-1-mediated up-regulation of PGES expression / effect on COX-1 overexpression: co-treatment of cells induced for 24, 48 and 72 hrs
# From the text: (§1) The Tet-Off expression system we used was developed by Gossen and co-workers (38) to deliver doxycycline-regulated expression based on the high specificity of the Escherichia coli tet repressor-operator-doxycycline interaction. In the Tet-Off expression system each clonal cell line is used as its own control (cells cultured in the presence of DOX) and the overexpression of the integrated target gene is modulated solely by removing DOX from the culture medium. This eliminates the need for a control clonal cell line transfected with vector alone (as used with constitutive stable expression systems) thereby overcoming the inherent variation that arises from different sites of integration of DNA between different clones. HeLa Tet-Off cells containing the pTet-Off vector stably transfected and constitutively expressing the tetracycline-controlled transactivator tTA (composed of a fusion of the TetR and VP16 activation domain) were purchased from Clontech. The pBS(SK−)/PSHI cDNA containing the full length COX-1 gene (kindly supplied by Dr Stephen Prescott, University of Utah, Salt Lake City, Utah) was used as the template plasmid. The response plasmid pTRE2 (containing the minimal cytomegalovirus promoter containing Tet-operator sequences cloned upstream of the cDNA to be expressed) and the plasmid for antibiotic selection (pTK-hygromycin) for use with the Tet-Off system were purchased from Clontech. The COX-1 gene was excised from the template plasmid and ligated at the Bam H1 site of the pTRE2 vector. The orientation of the insert was verified by dideoxy DNA sequencing using the sequence specific primers: 5′-[…]-3′ (SEQ ID No 8) and 5′-[…]-3′ (SEQ ID No 9) (Clontech). Cells were plated in 12 well dishes in complete medium containing 10 μg/ml G418 per well and were allowed to attach and grow overnight. The pTRE2 vector containing the COX-1 gene (2 μg) was co-transfected with pTK-hygromycin (0.1 μg, which contains the hygromycin gene under control of the minimal thymidine kinase (TK) promoter) into the HeLa Tet-Off cell line at about 80% confluency using pfx-5 (Invitrogen, De Schelp, Netherlands) diluted in Optimem (Gibco). Cells were incubated for 4 hrs at 37° C. in 5% humidified CO2. Thereafter the medium was replaced with fresh complete medium containing no G418. Cells were allowed to grow for 72 hrs. Transfected cells were then seeded together with wild-type cells. Clones were selected against 200 μg/ml hygromycin in the presence of 1 μg/ml DOX. At least 50 hygromycin-resistant clones were picked using cloning cylinders. Clones were allowed to grow under continuous selection with hygromycin in the presence of DOX and then screened for the ability to express COX-1 in the presence and absence of DOX by immunoblot analysis. […] Unless otherwise stated, all clones were maintained uninduced in 1 μg/ml DOX, 200 μg/ml hygromycin and 100 μg/ml G418. COX-inhibition studies were conducted by growing cells in medium containing 3 μg/ml indomethacin or 10 μM NS-398.
# (§2) Cells were seeded in 5 cm dishes and allowed to attach overnight. The following day, the cells were synchronised by incubating with serum-free medium for 24 hrs. Thereafter, the medium was replaced with fresh complete medium and the cells were grown in the presence or absence of DOX for 24, 48 and 72 hrs respectively. In parallel, cells were co-treated with indomethacin or NS-398. Cells were harvested by lysing in protein lysis buffer (150 mM NaCl, 10 mM Tris-HCl pH 7.4, 1 mM EDTA, 1% Triton X-100, 0.1% SDS). The protein content in the supernatant fraction was determined as described above. The clarified cell lysates (20 μg) were denatured and electrophoresed on 4-20% Tris-Glycine gels (NOVEX, Invitrogen).
# [5] = system: bFGF, VEGF, Ang-1 and Ang-2 expression in HeLa COX-1 Tet-Off cells; test: Western blot of angiogenic factors after COX-1 overexpression; settings: COX-1 overexpression up to 72 hrs
# From the text: as §1, §2
# HeLa COX-1 Tet-Off cells = test: PGE2 secretion into culture medium (ELISA) after COX-1 induction; settings: 5 μg/ml arachidonic acid
# From the text: The Tet-Off expression system we used was developed by Gossen and co-workers (38) to deliver doxycycline-regulated expression based on the high specificity of the Escherichia coli tet repressor-operator-doxycycline interaction. In the Tet-Off expression system each clonal cell line is used as its own control (cells cultured in the presence of DOX) and the overexpression of the integrated target gene is modulated solely by removing DOX from the culture medium. This eliminates the need for a control clonal cell line transfected with vector alone (as used with constitutive stable expression systems) thereby overcoming the inherent variation that arises from different sites of integration of DNA between different clones. HeLa Tet-Off cells containing the pTet-Off vector stably transfected and constitutively expressing the tetracycline-controlled transactivator tTA (composed of a fusion of the TetR and VP16 activation domain) were purchased from Clontech. The pBS(SK−)/PSHI cDNA containing the full length COX-1 gene (kindly supplied by Dr Stephen Prescott, University of Utah, Salt Lake City, Utah) was used as the template plasmid. The response plasmid pTRE2 (containing the minimal cytomegalovirus promoter containing Tet-operator sequences cloned upstream of the cDNA to be expressed) and the plasmid for antibiotic selection (pTK-hygromycin) for use with the Tet-Off system were purchased from Clontech. The COX-1 gene was excised from the template plasmid and ligated at the Bam H1 site of the pTRE2 vector. The orientation of the insert was verified by dideoxy DNA sequencing using the sequence specific primers: 5′-[…]-3′ (SEQ ID No 8) and 5′-[…]-3′ (SEQ ID No 9) (Clontech). Cells were plated in 12 well dishes in complete medium containing 10 μg/ml G418 per well and were allowed to attach and grow overnight. The pTRE2 vector containing the COX-1 gene (2 μg) was co-transfected with pTK-hygromycin (0.1 μg, which contains the hygromycin gene under control of the minimal thymidine kinase (TK) promoter) into the HeLa Tet-Off cell line at about 80% confluency using pfx-5 (Invitrogen, De Schelp, Netherlands) diluted in Optimem (Gibco). Cells were incubated for 4 hrs at 37° C. in 5% humidified CO2. Thereafter the medium was replaced with fresh complete medium containing no G418. Cells were allowed to grow for 72 hrs. Transfected cells were then seeded together with wild-type cells. Clones were selected against 200 μg/ml hygromycin in the presence of 1 μg/ml DOX. At least 50 hygromycin-resistant clones were picked using cloning cylinders. Clones were allowed to grow under continuous selection with hygromycin in the presence of DOX and then screened for the ability to express COX-1 in the presence and absence of DOX by immunoblot analysis. […]
# [6] = system: cAMP-linked PGE2 receptors in HeLa COX-1 Tet-Off cells; test: PGE2 stimulation and cAMP measurement in HeLa COX-1 Tet-Off cells; settings: cells grown in medium containing indomethacin, COX-1 induced 48 hrs
# Method: Cells (2×10^5) were plated in 6 well dishes containing 4 ml/well of complete medium containing DOX. Cells were allowed to attach overnight. The following day, the cells were synchronised by incubating with fresh medium containing no foetal bovine serum for 24 hrs. COX-1 Tet-Off cells were induced, by DOX withdrawal from the culture medium for 48 hrs at 37° C. in humidified 5% CO2 in the presence or absence of indomethacin. In parallel, control uninduced cells were supplemented daily with DOX. Thereafter the culture medium was removed and replaced with serum-free medium containing IBMX (Sigma) to a final concentration of 1 mM for 40 mins at 37° C. […] Following stimulation, the medium was removed and the cells lysed in 0.1M HCl. cAMP concentration was quantified by ELISA using a cAMP kit (Biomol, Affiniti, Exeter, UK) as per the manufacturer's protocol and normalised to protein concentration of the lysate. Protein concentrations were determined using protein assay kits (Bio-Rad).
# [7] = system: cervical carcinoma tissue and normal cervix; test: Basal cAMP levels in cervical tissues cultured overnight
# Method: Determination of Basal CAMP levels in cervical tissues. Initially, basal cAMP levels were measured in cervical tissue (n=7 squamous cell carcinomas and n=5 normal cervix; FIG. 12A). Carcinoma and normal cervical tissues were obtained on the day of surgery/biopsy, sectioned finely and divided equally into three aliquots. The tissue was transported at 4° C. and then incubated in 35 mm tissue culture dishes containing 2 ml of Dulbecco's Modified Eagle Medium (DMEM) (Sigma), containing 10% foetal calf serum, 0.3 mg/ml L-glutamine, 100 IU penicillin and 100 μg streptomycin for 1.5 hours. One aliquot of tissue was snap frozen to determine basal cAMP concentration in the tissue at the time of collection. The other two aliquots were incubated overnight at 37° C. in humidified 5% CO2 in the presence or absence of 3 μg/ml indomethacin [a dual COX enzyme inhibitor (24, 32)]. Subsequently, tissue sections were harvested by centrifugation at 2000 g. The supernatant was discarded and the tissue homogenised in 0.1 M HCl. cAMP concentration was quantified by ELISA using a cAMP kit (Biomol; Affiniti, Exeter, UK) as per the manufacturer's protocol and normalised to protein concentration of the homogenate, Protein concentrations were determined using protein assay kits (Bio-Rad, Hemel Hempstead, UK).
# [8] = system: cAMP-dependent PGE2-receptors in HeLa cells; test: Real-time quantitative RT-PCR of PGE2 receptors after COX-1 overexpression; settings: cells grown in medium containing indomethacin
# From the text: The Tet-Off expression system we used was developed by Gossen and co-workers (38) to deliver doxycycline-regulated expression based on the high specificity of the Escherichia coli tet repressor-operator-doxycycline interaction. In the Tet-Off expression system each clonal cell line is used as its own control (cells cultured in the presence of DOX) and the overexpression of the integrated target gene is modulated solely by removing DOX from the culture medium. This eliminates the need for a control clonal cell line transfected with vector alone (as used with constitutive stable expression systems) thereby overcoming the inherent variation that arises from different sites of integration of DNA between different clones. HeLa Tet-Off cells containing the pTet-Off vector stably transfected and constitutively expressing the tetracycline-controlled transactivator tTA (composed of a fusion of the TetR and VP16 activation domain) were purchased from Clontech. The pBS(SK−)/PSHI cDNA containing the full length COX-1 gene (kindly supplied by Dr Stephen Prescott, University of Utah, Salt Lake City, Utah) was used as the template plasmid. […]
# [9] = COX-1 induced 48 hrs with inhibitor (3 μg/ml indomethacin or 10 μM NS-398), induced without inhibitor 272.2±18.8 nM
# [10] = COX-1 induced 72 hrs with inhibitor (3 μg/ml indomethacin or 10 μM NS-398), induced without inhibitor 537±22.5 nM
SMILES,effect on seminal plasma up-regulation of EP2/EP4 receptor expression [1],effect on COX-1-mediated up-regulation of COX-2 expression [4],effect on COX-1-mediated up-regulation of PGES expression [4],effect on COX-1 overexpression [4],effect on COX-1 associated up-regulation of Ang-1 [5],effect on COX-1 associated up-regulation of Ang-2 [5],effect on COX-1 associated up-regulation of bFGF [5],PGE2 levels in culture medium (HeLa COX-1 Tet-Off cells; [9]),PGE2 levels in culture medium (HeLa COX-1 Tet-Off cells; [10]),also measured
O=S(=O)(NCCNC/C=C/c1ccc(Br)cc1)c1cccc2cnccc12 [H-89],partially abolished,–,–,–,–,–,–,–,–,–
C=C[C@@]1(C)CC(=O)[C@]2(O)[C@@]3(C)[C@@H](O)CCC(C)(C)[C@@H]3[C@H](O)[C@H](OC(C)=O)[C@@]2(C)O1 [forskolin],–,–,–,–,–,–,–,–,–,fold induction of cAMP generation in cancer tissue [2]: 55.3±15.84 fold; fold induction of cAMP generation in normal cervix [2]: 9.18±1.59 fold
"CCCCC[C@H](O)/C=C/[C@H]1[C@H](O)CC(=O)[C@@H]1C/C=C\CCCC(=O)O [PGE2, prostaglandin E2]",–,–,–,–,–,–,–,–,–,inositol phosphate accumulation [3]: No inositol phosphate accumulation above basal
COc1ccc2c(c1)c(CC(=O)O)c(C)n2C(=O)c1ccc(Cl)cc1 [indomethacin],abolished,inhibited; also recorded: abolished,inhibited; also recorded: abolished,no alteration,abolished,abolished,abolished,62 ± 7 nM,76 ± 10.7 nM,"effect on COX-1 associated up-regulation of Ang-1 ([5]; listed as Indomethacin): inhibited; effect on COX-1 associated up-regulation of Ang-2 ([5]; listed as Indomethacin): inhibited; effect on COX-1 associated up-regulation of VEGF ([5]; listed as Indomethacin): inhibited; effect on COX-1 associated up-regulation of bFGF ([5]; listed as Indomethacin): inhibited; effect on COX-1 associated up-regulation of VEGF ([5]; listed as indormethacin): abolished; effect on elevated cAMP production in COX-1 overexpressing cells in response to PGE2 [6]: abolished; cAMP concentration in carcinoma tissue ([7]; overnight culture in presence of indomethacin, without indomethacin 64.2±5.1): 2.59±0.64 pmol cAMP/mg protein; cAMP concentration in normal cervical tissue ([7]; overnight incubation in presence of indomethacin, without indomethacin 11.96±1.35): 4.0±0.7 pmol cAMP/mg protein; effect on up-regulation of the cAMP-dependent PGE2-receptors by COX-1 overexpression [8]: inhibited"
CS(=O)(=O)Nc1ccc([N+](=O)[O-])cc1OC1CCCCC1 [NS-398],partially abolished,No significant change; also recorded: Partial inhibition,Partial inhibition,no alteration,partially reduced; also recorded: partially inhibited,partially reduced; also recorded: partially inhibited,partially reduced; also recorded: partially inhibited,132 ± 26.2 nM,268 ± 17 nM,delay of induction of PGES by COX-1 overexpression ([4]; treatment of HeLa cells with NS-398): 24 h; effect on COX-1 associated up-regulation of VEGF [5]: partially reduced; also recorded: partially inhibited
